Patent US8680052B1, “Methods of treating, reducing the incidence of, and/or preventing ischemic events” (The Medicines Company, priority 2013, dated 2014)
Like-named read-outs stand apart in the source and are kept apart here.

Tested on: patients with atherosclerosis undergoing PCI
[1] = 48 hours, ITT, rate in parentheses

Description: The protocol called for aspirin (75 to 325 mg) to be administered to all patients. […] The choice of a periprocedural anticoagulant (bivalirudin, unfractionated heparin, low-molecular-weight heparin, or fondaparinux) was also at the discretion of the investigator. Glycoprotein IIb/IIIa inhibitors were allowed only as rescue therapy during PCI to treat new or persistent thrombus formation, slow or no reflow, side-branch compromise, dissection, or distal embolization. The investigator at the site determined the protocol for management of the arterial sheath.
The inclusion criteria for the trial were men or nonpregnant women, 18 years of age or older with coronary atherosclerosis who required PCI for stable angina, a non-ST-segment elevation acute coronary syndrome, or ST-segment elevation myocardial infarction (STEMI). Patients were required to provide written informed consent.
Major exclusion criteria were receipt of a P2Y12 inhibitor or abciximab at any time in the 7 days before randomization and receipt of eptifibatide or tirofiban or fibrinolytic therapy in the 12 hours before randomization.
The primary efficacy end point was the composite rate of death from any cause, myocardial infarction, IDR, or stent thrombosis in the 48 hours after randomization in the modified intention-to-treat population (which comprised patients who actually underwent PCI and received the study drug). […] The key secondary end point was the incidence of stent thrombosis at 48 hours. This end point included definite stent thrombosis, defined according to the criteria of the Academic Research Consortium, or intraprocedural stent thrombosis, which was assessed, with group assignments concealed, at an angiographic core laboratory (Cardiovascular Research Foundation). Intraprocedural stent thrombosis was defined as any new or worsened thrombus related to the stent procedure that was confirmed angiographically. Events of death, myocardial infarction, IDR, and stent thrombosis that occurred during the first 30 days after randomization were adjudicated by the clinical events committee at the Duke Clinical Research Institute. The study adhered to the universal definition of myocardial infarction for myocardial infarction unrelated to PCI but expanded on the definition of PCI-related myocardial infarction.
The numbers and percentages of patients within each analysis population (modified intention-to-treat, intention-to-treat, and safety) were summarized according to treatment group. The primary efficacy analysis of the rate of the composite end point of death from any cause, myocardial infarction, IDR, or stent thrombosis (with all events adjudicated by the clinical events committee) in the 48 hours after randomization was conducted in the modified intention-to-treat population. The primary safety analysis was conducted in the safety population, which comprised all patients who underwent randomization and received at least one dose of the study drug; patients were classified according to the actual treatment received. All calculations and statistical analyses were performed with the use of SAS software, version 9.2.

COC(=O)[C@H](c1ccccc1Cl)N1CCc2sccc2C1 [Clopidogrel, clopidogrel, reference compound]
rate of stent thrombosis (key secondary efficacy end point) (48 hours): 1.4%
Death (48 hours, ITT, n/N): 21/5561
Death/MI (48 hours, ITT, n/N): 275/5561
Death/MI/IDR (48 hours, ITT, n/N): 289/5561
Death/MI/IDR/ST (48 hours, ITT, n/N): 325/5561
Death/MI/IDR/ST/GUSTO Severe Bleeding (Net Adverse Clinical Events, NACE) (48 hours, ITT, n/N): 330/5561
Death/MI/ST (48 hours, ITT, n/N): 315/5561
Death/Q-wave MI/IDR (48 hours, ITT, n/N): 67/5561
Death/ST (48 hours, ITT, n/N): 90/5561
IDR (48 hours, ITT, n/N): 38/5561
MI (48 hours, ITT, n/N): 255/5561
Q-wave MI (48 hours, ITT, n/N): 18/5561
Stent thrombosis (48 hours, ITT, n/N): 74/5561
Death [1]: (0.4)
Death/MI [1]: (5.0)
Death/MI/IDR [1]: (5.2)
Death/MI/IDR/ST [1]: (5.8)
Death/MI/IDR/ST/GUSTO Severe Bleeding (Net Adverse Clinical Events, NACE) [1]: (5.9)
Death/MI/ST [1]: (5.7)
Death/Q-wave MI/IDR [1]: (1.2)
Death/ST [1]: (1.6)
IDR [1]: (0.7)
MI [1]: (4.6)
Q-wave MI [1]: (0.3)
Stent thrombosis [1]: (1.3)
rate of primary composite efficacy end point (death from any cause, myocardial infarction, IDR, or stent thrombosis) (48 hours, modified intention-to-treat): 5.9%
net rate of adverse clinical events (primary efficacy plus primary safety end point) (48 hours, post hoc): 6.0%
Stent thrombosis (30 days): 1.9%
rate of the composite efficacy end point (30 days): 7.0%
rate of intraprocedural stent thrombosis (in vivo): 1.0%
rate of procedural complications (in vivo): 4.5%
use of rescue therapy with a glycoprotein IIb/IIIa inhibitor (in vivo): 3.5%
